Tests used:
[1] = test system: highly resistant tumor cells (EC9706, MCF-7 and Hela cells); test: Spread and replication of Baco-1 (GFP) in highly resistant tumor cell monolayers (FIG. 3B, 3C); assay type: cell-based; conditions: infected cells incubated with inhibitor
From the text: Because Baco-1 contains the Green Fluorescent Protein (GFP) gene, it is possible to visualize GFP expression during virus infection and thus monitor the spread of virus among tumor cells.
The effect of PI3K inhibitor, LY294002, on the replication of Baco-1 is examined in these cells. The three highly resistant tumor cell lines are infected with Baco-1, with or without the presence of LY294002 in the medium.
In the same experiment, three highly resistant tumor cells (EC9706, MCF-7 and Hela cells) are infected with Baco-1 at 0.01 pfu/cell and incubated without or with rapamycin at a concentration of 100 nM, or LY294002 at 50 μM concentration.

HeLa = test: Baco-1 virus yield with or without rapamycin, HeLa cells; assay type: cell-based; conditions: HeLa (cervix); Baco-1 yield, well with rapamycin / well without
Experimental: (§1) A. EC9706 cells were either preincubated with rapamycin overnight (Pre-Inf) or incubated with the drug during the virus infection (During-Inf). They were then infected with Baco-1 at 0.1 pfu/cell and for 72 h. Fold increase in virus yield was calculated by dividing […]. […] B. MCF-7 and HeLa cells were infected with Baco-1 at 0.01 pfu/cell for 1 h. Then the cells were cultured in medium without (control) or with rapamycin at a concentration of 100 nM for 72 h before harvesting for virus titration.

PANC-1 = test: Baco-1 virus yield with or without rapamycin, PANC-1 cells; assay type: cell-based; conditions: PANC-1 (pancreas); Baco-1 yield, well with rapamycin / well without
HCT116 = test: Baco-1 virus yield with or without rapamycin, HCT116 cells; assay type: cell-based; conditions: HCT116 (colon); Baco-1 yield, well with rapamycin / well without
MDA-MB-231 = test: Baco-1 virus yield with or without rapamycin, MDA-MB-231 cells; assay type: cell-based; conditions: MDA-MB-231 (breast); Baco-1 yield, well with rapamycin / well without
293T = test: Baco-1 virus yield with or without rapamycin, 293T cells; assay type: cell-based; conditions: 293T (kidney); Baco-1 yield, well with rapamycin / well without
Hep3B = test: Baco-1 virus yield with or without rapamycin, Hep3B cells; assay type: cell-based; conditions: Hep3B (liver); Baco-1 yield, well with rapamycin / well without
HuH-7 = test: Baco-1 virus yield with or without rapamycin, HuH-7 cells; assay type: cell-based; conditions: HuH-7 (liver); Baco-1 yield, well with rapamycin / well without
SW480 = test: Baco-1 virus yield with or without rapamycin, SW480 cells; assay type: cell-based; conditions: SW480 (colon); Baco-1 yield, well with rapamycin / well without
EC9706 cells [2] = test: Yield of other HSVs (17+, FusOn-H2, ApE-Mir-3) in EC9706 cells with or without rapamycin (FIG. 4); assay type: cell-based, human; conditions: EC9706, 0.1 pfu/cell, rapamycin 100 nM
From the text: In another preferred embodiment of the present invention the potentiating effect of rapamycin on virus replication in highly resistant tumor cells is applied to other oncolytic HSVs, including strain 17 (17^+), a wild-type HSV-1, FusOn-H2, which is constructed from an HSV-2 by mutating the N-terminal region of the ICP 10 gene (Fu, et al., A Mutant Type 2 Herpes Simplex Virus Deleted for the Protein Kinase Domain of the ICP10 Gene Is a Potent Oncolytic Virus, Mol. Ther. 2006; 13:882-90), and ApE-Mir-3, an HSV-1-based oncolytic virus in which the glycoprotein H (gH) gene is controlled by tissue-specific microRNAs (miRNAs), including let-7 and mir-122. To that end, EC9706 cells are infected with these viruses at 0.1 pfu/cell for 1 h and then cultured the cells in media with or without rapamycin at a concentration of 100 nM. […] Replication of the HSV-2-based oncolytic virus, FusOn-H2, is increased by approximately 5-fold, similar to those seen with Baco-1.
EC9706 cells were infected with three other types of oncolytic HSVs, including FusOn-H2 (an oncolytic HSV derived from HSV-2, while Baco-1 was derived from HSV-1) and Ape-Mir3 (an oncolytic HSV specifically targets to hepatocellular carcinoma), at 0.1 pfu/cell and then incubated with medium without or with rapamycin (100 nM) for 72 h before harvesting for virus titration.

MPanc-96 = test: Baco-1 virus yield with or without rapamycin, MPanc-96 cells; assay type: cell-based; conditions: MPanc-96 (pancreas); Baco-1 yield, well with rapamycin / well without
A549 = test: Baco-1 virus yield with or without rapamycin, A549 cells; assay type: cell-based; conditions: A549 (lung); Baco-1 yield, well with rapamycin / well without
DLD-1 = test: Baco-1 virus yield with or without rapamycin, DLD-1 cells; assay type: cell-based; conditions: DLD-1 (colon); Baco-1 yield, well with rapamycin / well without
EC9706 cells [3] = test: Baco-1 virus yield (plaque assay) with or without drug, EC9706 cells; assay type: cell-based, human
Experimental: as §1

MCF-7 = test: Baco-1 virus yield with or without rapamycin, MCF-7 cells; assay type: cell-based, human; conditions: MCF-7 (breast); Baco-1 yield, well with rapamycin / well without
Experimental: as §1

HepG2 = test: Baco-1 virus yield with or without rapamycin, HepG2 cells; assay type: cell-based; conditions: HepG2 (liver); Baco-1 yield, well with rapamycin / well without
MDA-MB-435 = test: Baco-1 virus yield with or without rapamycin, MDA-MB-435 cells; assay type: cell-based; conditions: MDA-MB-435 (breast); Baco-1 yield, well with rapamycin / well without
[4] = test system: resistant tumor cells (EC9706, MCF-7, HeLa); test: Baco-1 virus yield in resistant tumor cells with or without rapamycin (FIG. 2B, 2C); assay type: cell-based
Experimental: FIG. 2. […] Virus yield, as determined by plaque assay. Values represent the mean±SD of triplicate experiments.
as §1

CC[n+]1c(/C=C/N(C)c2ccccc2)n(-c2ccccc2)c2ccc(-c3nc4ccccc4s3)cc21.[I-] [Akt Inhibitor IV]
Effect on Baco-1 replication [1]: does not result in any significant increase in Baco-1 replication

CO[C@H]1C[C@@H]2CC[C@@H](C)[C@@](O)(O2)C(=O)C(=O)N2CCCC[C@H]2C(=O)O[C@H]([C@H](C)C[C@@H]2CC[C@@H](O)[C@H](OC)C2)CC(=O)[C@H](C)/C=C(\C)[C@@H](O)[C@@H](OC)C(=O)[C@H](C)C[C@H](C)/C=C/C=C/C=C/1C [rapamycin]
Fold of change in virus yield (HeLa): 3.0 | Fold of change in virus yield (PANC-1): 0.99 | Fold of change in virus yield (HCT116): 0.5 | Fold of change in virus yield (MDA-MB-231): 0.87 | Fold of change in virus yield (293T): 8.01 | Fold of change in virus yield (Hep3B): 1.10 | Fold of change in virus yield (HuH-7): 0.8 | Fold of change in virus yield (SW480): 5.31 | Increase in replication of ApE-Mir-3 (EC9706 cells [2]): 2.5 fold | Increase in replication of FusOn-H2 (EC9706 cells [2]): approximately 5 fold | Increase in virus yield of strain 17+ (wild-type HSV-1) (EC9706 cells [2]): more than 10 fold | Increase in yield of other oncolytic HSVs (pooled statement) (EC9706 cells [2]; 72 h): 3-10 folds | Fold of change in virus yield (MPanc-96): 0.55 | Fold of change in virus yield (A549): 0.42 | Fold of change in virus yield (DLD-1): 1.02 | Fold of change in virus yield (EC9706 cells [3]; EC9706 (esophagus), Baco-1 yield, well with rapamycin / well without): 5.98 | Fold increase in virus yield (EC9706 cells [3]; EC9706 cells, Baco-1 0.1 pfu/cell, 72 h, drug in the medium, FIG. 2A): ~6 fold | Fold of change in virus yield (MCF-7): 4.86 | Fold of change in virus yield (HepG2): 1.04 | Fold of change in virus yield (MDA-MB-435): 0.6 | Fold increase in virus yield ([4]; MCF-7 and HeLa cells, Baco-1 0.01 pfu/cell, rapamycin 100 nM, 72 h, FIG. 2B): 3-5 fold | Virus yield in the presence of rapamycin ([4]; resistant tumor cells, Baco-1, FIG. 2C): ~5×10^6 pfu

Reference: patent US20120100109A1, “Method for increasing the replication of oncolytic HSVs in highly resistant tumor cells using mTOR pathway and PI3K inhibitors” (priority 2010, published 2012)
